One test addresses rat 5-HT6 receptors (Rattus norvegicus, UniProt P31388). As to conditions: cited from earlier work.
The test system of test [1] is NCAM PSA-immunoreactive neurons, dentate granule cell layer/hilar border. The test can be described thus: NCAM PSA expression in hippocampal dentate gyrus after chronic administration. In kind it is in vivo, rat. The following applies: for PSA immunopositive cell frequency: hippocampal dentate, 40 days by gavage. How it is done:
(§1) Experimentally naïve postnatal day 80 (at the time of NCAM-PSA assessment) male Wistar rats were employed in all studies. All animals were housed singly and maintained at 22±2° C. on a standard 12 h-light/dark cycle with food and water available ad libitum. Animals were introduced to the experimental holding rooms at least 3 days prior to the commencement of any study.
(§2) Freshly dissected whole rat brain was carefully coated in optimum cutting temperature (OCT) compound and lowered into a Cryoprep freezing apparatus containing dry-ice-cooled n-hexane. The function of the OCT compound and n-hexane was to provide an even freezing of the tissue, thus avoiding freezing artefacts. Horizontal sections for all studies were cut semi-automatically or automatically on a Microm Series 500 cryostat. Fresh, frozen brain sections (12 μm) were cut at −15° C., while cryoprotected. All sections were prepared on the day of the experiment and were not pre-cut and stored frozen.
(§3) Horizontal cryosections were cut from the frozen tissue at various levels with reference to Bregma (see above), these were thaw-mounted onto glass slides, which were coated with poly-1-lysine diluted 1:1 in dH2O, and immersion fixed for 30 minutes with 70% ethanol. The sections were then washed twice for 10 minutes each in 0.1M phosphate buffered saline (PBS) and incubated for 20 hours in a humidified chamber at room temperature with the primary antibody diluted 1:500 in PBS containing 1% bovin serum albumin (w/v) and 1% normal goat serum (v/v) to reduce non-specific staining. The humidified chamber prevented the sections from evaporating. The primary antibody was a monoclonal raised against PSA, which was provided by Professor G, Rougon (CNRS UMR 6545, 13288 Marseille, France). On completion of the primary antibody incubation, the sections were washed twice for ten minutes each in PBS and incubated at room temperature for 3 hours in the humidified chamber with the secondary antibody, at a dilution factor of 1:100, again in PBS containing 1% BSA and 1% NGS. The secondary antibody was a goat anti-mouse IgM conjugated to fluorescein (FITC). Following the second incubation, the sections ware again washed twice for ten minutes each in PBS, mounted in the fluorescence enhancing medium Citifluor® and observed for fluorescence with a Leitz DM RB fluorescent microscope.
(§4) Quantitative image analysis was performed using the Leica Quantimet 500®, a P.C.-based software package, which was connected to the fluorescence microscope with a high sensitivity CCD video camera. Each microscope lens was calibrated for length and area measurements using a 1 mm graticule. The total number of NCAM PSA-immunoreactive neurons on the right dentate granule cell layer/hilar border were counted in 7 alternate 12 μm sections commencing −5.6 mm from Bregma (Paxinos and Watson, 1986), to preclude double counting of the 5-10 μm perikarya. Cell identification was aided by the use of the nuclear counter-stain propidium iodide (40 ng/ml PBS; 60 sec). The number of cells was then divided by the total area of the dentate granule cell layer and multiplied by the average granule cell layer area for a p80 rat, which is 0.15±0.01 mm^2 at this level. This was done for each section and a mean±SEM was calculated for each brain with the results expressed as PSA-positive cells per unit area. […] Cell identification was again aided by the use of the nuclear counter-stain propidium iodide (40 ng/ml PBS; 60 sec) with the use of alternate sections eliminating the possibility of double counting. Cell counts were divided by the length of the cortex and multiplied by the average length of the cortex, which was taken to be 10 mm. This was completed for each section and a mean±SEM was calculated for each brain with the results expressed as PSA-positive cells per unit length.
NCAM PSA-positive cell numbers were obtained from each animal group.

Test [2] has as its system BrdU-immunopositive cells in the hippocampal dentate granule cell layer. The test is described as follows: BrdU expression in hippocampal dentate granule cell layer (neurogenesis). In kind it is in vivo, rat. On the procedure: as §1
The test system of test [3] is NCAM PSA-immunoreactive neurons, dentate granule cell layer/hilar border. The test is described as follows: NCAM PSA expression in hippocampal dentate gyrus with water maze training. As to conditions: for PSA immunopositive cell frequency: Example 2. In kind it is in vivo, rat. On the procedure: as §1, §2, §3, §4
In this protocol animals were introduced to the training environment 5 days prior to training, and individually housed according to standard conditions. […]

Sequence of rat 5-HT6 receptors (P31388 whole entry): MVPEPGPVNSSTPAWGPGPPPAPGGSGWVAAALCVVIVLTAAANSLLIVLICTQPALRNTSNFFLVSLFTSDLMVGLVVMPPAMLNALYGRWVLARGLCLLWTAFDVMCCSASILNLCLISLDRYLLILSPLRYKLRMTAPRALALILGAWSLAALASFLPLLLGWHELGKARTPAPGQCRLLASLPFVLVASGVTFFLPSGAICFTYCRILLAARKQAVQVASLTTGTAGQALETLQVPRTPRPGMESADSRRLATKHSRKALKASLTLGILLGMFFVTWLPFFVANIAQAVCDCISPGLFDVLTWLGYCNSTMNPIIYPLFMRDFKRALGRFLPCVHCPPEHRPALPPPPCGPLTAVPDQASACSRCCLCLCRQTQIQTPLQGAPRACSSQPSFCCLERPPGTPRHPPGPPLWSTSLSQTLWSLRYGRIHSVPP

For `COc1ccc(NS(=O)(=O)c2sc3ccc(Cl)cc3c2C)cc1N1CCNCC1.Cl` [SB271046, 5-Chloro-3-methylbenzo[b]thiophene-2-sulfonic acid (4-methoxy-3-piperazin-1-ylphenyl)amide hydrochloride], at rat 5-HT6 receptors, the pKi is recorded as 9.0. In addition, the “PSA immunopositive cell frequency” value in test [1] (Example 1, 3 mg/kg) is on record as 70.3 ± 3.9 PSA-positive cells per unit area; in test [1] (Example 1, 10 mg/kg), 82.4 ± 1.7 PSA-positive cells per unit area; in test [1] (Example 1, 20 mg/kg), 85.8 ± 8.4 PSA-positive cells per unit area; in test [1] (Example 3, 20 mg/kg), 78.3 ± 3.4 PSA-positive cells per unit area; in test [3] (acute 20 mg/kg by gavage 30 min before water maze training, 12 h post-training), 96.0 ± 5.5 PSA-positive cells per unit area; in test [3] (acute 20 mg/kg by gavage, untrained), 64.2 ± 4.3 PSA-positive cells per unit area. Moreover, the “PSA immunopositive cell frequency” value in test [3] (chronic 20 mg/kg, 40 days by gavage, 12 h post water maze training) is on record as 109.8 ± 1.8 PSA-positive cells per unit area; in test [3] (chronic 20 mg/kg, 40 days by gavage, untrained), 85.8 ± 1.3 PSA-positive cells per unit area. Moreover, the “frequency of polysialylated neurons in repeat group compared with Example 1” value in test [1] (Example 3 repeat, 20 mg/kg chronic) was “no difference”. Also, the “effect on frequency of polysialylated neurons in the subventricular zone of the rat hippocampal dentate gyrus” value in test [1] (chronic administration, versus vehicle-treated control) is recorded as “significantly increase”. Besides, the “BrdU-immunopositive cell number/granule cell layer” value in test [2] (20 mg/kg, 40 days by gavage, BrdU 100 mg/kg i.p. last eight days) worked out at 2332 ± 136.5. Besides, in test [2] (chronic 20 mg/kg, versus vehicle-treated controls), the “effect on expression of BrdU-immunopositive cells / neurogenic rate” value was “without altering neurogenic rate”. The “effect on frequency of polysialylated neurons at 12 h following water maze training” value in test [3] (acute 20 mg/kg, versus untrained drug-treated and trained drug-naive animals) is reported as “significantly increase”.

The values are drawn from patent US20070270432A1, “Novel Method” (priority 2002, published 2007).
